Experimental data reported in PubChem BioAssay (NCI).
Several values for one entry are separate records, joined by “and”; a condition that tells them apart may be missing. Identical values can stand only once.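 Cultured in 96-well plates, cells were exposed to test compound for 48 hours across five concentrations. The concentration for 50% growth inhibition is given as GI50. The concentration for full growth arrest is given as TGI.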

test system: HT29 colon; assay: DTP human tumour cell line panel, 48 h

SMILES | GI50 [µM] | TGI [µM]
CC(C)(C#N)c1cc(Cn2cncn2)cc(C(C)(C)C#N)c1 | 3050 | > 10000
CCNC(=O)CCN(C(=O)O)S(=O)(=O)c1ccc(NC(=O)c2ccccc2)cc1 | – | > 100
CC1C[C@@]2(c3ccccc3)C(=O)CCC[C@H]2N1 (some centres not stated) | – | > 100
COC(=O)c1cc2c(cc1Cl)SC(N(N(C)C)S(=O)(=O)c1ccc(Br)s1)=NS2(=O)=O | 21.3 | 56.9
CCN(CC)CCC(=O)NC1c2ccc(Cl)cc2Oc2c(C)cccc21 (configuration not stated) | – | 28.9
CCOC(=O)c1cc(C#N)c(=O)n(/N=C(\C)c2ccncc2)c1O | > 100 | > 100

test system: IGROV1 ovarian; assay: DTP human tumour cell line panel, 48 h

SMILES | GI50 [µM] | TGI [µM]
COc1cc2c(cc1OCCCOc1cc3c(cc1OC)C(=O)N1C[C@H](F)C[C@H]1C=N3)N=C[C@@H]1C[C@@H](F)CN1C2=O | 1.89 | 5.88
Cn1c([N+](=O)[O-])cnc1/C=C1\Oc2ccccc2C1=O | 0.6 | 5.87
O=[N+]([O-])c1cccc(C2N3CCCCC3[C@@H]3c4[nH]c5ccccc5c4CCN23)c1 (some centres not stated) | – | 39.2
Cc1c[nH]c2c(O)cc3c(c12)[C@H](CCl)CN3C(=O)c1cc2cc(NC(=O)Nc3ccc4[nH]c(C(=O)N5C[C@@H](CCl)c6c5cc(O)c5[nH]cc(C)c65)cc4c3)ccc2[nH]1 | 0.0255 | 44
CCOC(=O)NC(=O)c1cn(CC(=O)NCC(=O)NCC(=O)NCCCN2CCN(CCCNC(=O)CNC(=O)CNC(=O)Cn3cc(C(=O)NC(=O)OCC)c(=O)[nH]c3=O)CC2)c(=O)[nH]c1=O | – | > 100
CN1CCN(CCCN)CC1 | – | > 100
CC(=O)Nc1ccc(C(=O)NN2C(=O)C(Cl)C2c2ccc(Cl)cc2)cc1 (configuration not stated) | – | > 100
CCC1(CC)C(=O)OC(=O)C1(CC)CC | – | > 100
CC(C)(C#N)c1cc(Cn2cncn2)cc(C(C)(C)C#N)c1 | 1760 | > 10000
CCNC(=O)CCN(C(=O)O)S(=O)(=O)c1ccc(NC(=O)c2ccccc2)cc1 | – | > 100
CC1C[C@@]2(c3ccccc3)C(=O)CCC[C@H]2N1 (some centres not stated) | – | > 100
COC(=O)c1cc2c(cc1Cl)SC(N(N(C)C)S(=O)(=O)c1ccc(Br)s1)=NS2(=O)=O | 29 | 94.3
CCN(CC)CCC(=O)NC1c2ccc(Cl)cc2Oc2c(C)cccc21 (configuration not stated) | – | 40
CCOC(=O)c1cc(C#N)c(=O)n(/N=C(\C)c2ccncc2)c1O | > 100 | > 100

test system: M14 melanoma; assay: DTP human tumour cell line panel, 48 h

SMILES | GI50 [µM] | TGI [µM]
COc1cc2c(cc1OCCCOc1cc3c(cc1OC)C(=O)N1C[C@H](F)C[C@H]1C=N3)N=C[C@@H]1C[C@@H](F)CN1C2=O | 3.52 | 16.4
Cn1c([N+](=O)[O-])cnc1/C=C1\Oc2ccccc2C1=O | 0.32 | 2.51
O=[N+]([O-])c1cccc(C2N3CCCCC3[C@@H]3c4[nH]c5ccccc5c4CCN23)c1 (some centres not stated) | – | 28
Cc1c[nH]c2c(O)cc3c(c12)[C@H](CCl)CN3C(=O)c1cc2cc(NC(=O)Nc3ccc4[nH]c(C(=O)N5C[C@@H](CCl)c6c5cc(O)c5[nH]cc(C)c65)cc4c3)ccc2[nH]1 | 0.00359 | –
CCOC(=O)NC(=O)c1cn(CC(=O)NCC(=O)NCC(=O)NCCCN2CCN(CCCNC(=O)CNC(=O)CNC(=O)Cn3cc(C(=O)NC(=O)OCC)c(=O)[nH]c3=O)CC2)c(=O)[nH]c1=O | – | > 100
CN1CCN(CCCN)CC1 | – | > 100
CC(=O)Nc1ccc(C(=O)NN2C(=O)C(Cl)C2c2ccc(Cl)cc2)cc1 (configuration not stated) | – | > 100
CCC1(CC)C(=O)OC(=O)C1(CC)CC | – | > 100
CCNC(=O)CCN(C(=O)O)S(=O)(=O)c1ccc(NC(=O)c2ccccc2)cc1 | – | > 100
CC1C[C@@]2(c3ccccc3)C(=O)CCC[C@H]2N1 (some centres not stated) | – | > 100
COC(=O)c1cc2c(cc1Cl)SC(N(N(C)C)S(=O)(=O)c1ccc(Br)s1)=NS2(=O)=O | 23.2 | 49.2
CCN(CC)CCC(=O)NC1c2ccc(Cl)cc2Oc2c(C)cccc21 (configuration not stated) | – | 31.3
CCOC(=O)c1cc(C#N)c(=O)n(/N=C(\C)c2ccncc2)c1O | > 100 | > 100

test system: NCI-H460 lung; assay: DTP human tumour cell line panel, 48 h

SMILES | GI50 [µM] | TGI [µM]
COc1cc2c(cc1OCCCOc1cc3c(cc1OC)C(=O)N1C[C@H](F)C[C@H]1C=N3)N=C[C@@H]1C[C@@H](F)CN1C2=O | 6.15 | 20.1
Cn1c([N+](=O)[O-])cnc1/C=C1\Oc2ccccc2C1=O | 0.314 | 1.72
O=[N+]([O-])c1cccc(C2N3CCCCC3[C@@H]3c4[nH]c5ccccc5c4CCN23)c1 (some centres not stated) | – | 31.1
CCOC(=O)NC(=O)c1cn(CC(=O)NCC(=O)NCC(=O)NCCCN2CCN(CCCNC(=O)CNC(=O)CNC(=O)Cn3cc(C(=O)NC(=O)OCC)c(=O)[nH]c3=O)CC2)c(=O)[nH]c1=O | – | > 100
CC(=O)Nc1ccc(C(=O)NN2C(=O)C(Cl)C2c2ccc(Cl)cc2)cc1 (configuration not stated) | – | > 100
CCC1(CC)C(=O)OC(=O)C1(CC)CC | – | > 100
CC(C)(C#N)c1cc(Cn2cncn2)cc(C(C)(C)C#N)c1 | 3990 | > 10000
CCNC(=O)CCN(C(=O)O)S(=O)(=O)c1ccc(NC(=O)c2ccccc2)cc1 | – | > 100
CC1C[C@@]2(c3ccccc3)C(=O)CCC[C@H]2N1 (some centres not stated) | – | > 100
COC(=O)c1cc2c(cc1Cl)SC(N(N(C)C)S(=O)(=O)c1ccc(Br)s1)=NS2(=O)=O | 22.4 | 43.9
CCN(CC)CCC(=O)NC1c2ccc(Cl)cc2Oc2c(C)cccc21 (configuration not stated) | – | 31.7
CCOC(=O)c1cc(C#N)c(=O)n(/N=C(\C)c2ccncc2)c1O | > 100 | > 100

test system: RXF 393 renal; assay: DTP human tumour cell line panel, 48 h

SMILES | GI50 [µM] | TGI
COc1cc2c(cc1OCCCOc1cc3c(cc1OC)C(=O)N1C[C@H](F)C[C@H]1C=N3)N=C[C@@H]1C[C@@H](F)CN1C2=O | 2.4 | 7.6 µM
O=[N+]([O-])c1cccc(C2N3CCCCC3[C@@H]3c4[nH]c5ccccc5c4CCN23)c1 (some centres not stated) | – | 18.8 µM
Cc1c[nH]c2c(O)cc3c(c12)[C@H](CCl)CN3C(=O)c1cc2cc(NC(=O)Nc3ccc4[nH]c(C(=O)N5C[C@@H](CCl)c6c5cc(O)c5[nH]cc(C)c65)cc4c3)ccc2[nH]1 | – | 70.8 nM and > 100 µM and 0.000888 µg/mL
CN1CCN(CCCN)CC1 | – | > 100 µM
CC1C[C@@]2(c3ccccc3)C(=O)CCC[C@H]2N1 (some centres not stated) | – | > 100 µM

test system: SNB-75 CNS; assay: DTP human tumour cell line panel, 48 h

SMILES | GI50 [µM] | TGI [µM]
Cn1c([N+](=O)[O-])cnc1/C=C1\Oc2ccccc2C1=O | 1.51 | 4.87
CCOC(=O)NC(=O)c1cn(CC(=O)NCC(=O)NCC(=O)NCCCN2CCN(CCCNC(=O)CNC(=O)CNC(=O)Cn3cc(C(=O)NC(=O)OCC)c(=O)[nH]c3=O)CC2)c(=O)[nH]c1=O | – | > 100
CN1CCN(CCCN)CC1 | – | > 100
CC(=O)Nc1ccc(C(=O)NN2C(=O)C(Cl)C2c2ccc(Cl)cc2)cc1 (configuration not stated) | – | 30.9
CCC1(CC)C(=O)OC(=O)C1(CC)CC | – | > 100
CC(C)(C#N)c1cc(Cn2cncn2)cc(C(C)(C)C#N)c1 | > 10000 | > 10000
CCNC(=O)CCN(C(=O)O)S(=O)(=O)c1ccc(NC(=O)c2ccccc2)cc1 | – | > 100
CC1C[C@@]2(c3ccccc3)C(=O)CCC[C@H]2N1 (some centres not stated) | – | > 100
COC(=O)c1cc2c(cc1Cl)SC(N(N(C)C)S(=O)(=O)c1ccc(Br)s1)=NS2(=O)=O | 30.5 | 88.7
CCN(CC)CCC(=O)NC1c2ccc(Cl)cc2Oc2c(C)cccc21 (configuration not stated) | – | 22.5
